Literature values as cited in paper PMC11921695 (BMC Cancer, 2025).

Legend:
[1] = test system: patients with advanced cancer; design: method as in Banerji, et al.; conditions: ref Banerji, et al., cited from earlier work
[2] = test system: p38 and JNK; design: method as in Banerji, et al.; conditions: protocol background; ref Banerji, et al.; cited from earlier work

## Cn1cnc2c(F)c(Nc3ccc(Br)cc3Cl)c(C(=O)NOCCO)cc21 [selumetinib, 6-(4-Bromo-2-chloro-phenylamino)-7-fluro-3-methyl-3 H-benzoimidazole-5-carboxylic acid (2-hydroxy-ethoxy)-amide hydrogen sulphate]
[1]; selumetinib monotherapy
  dose identified as both safe and tolerable: 75 mg bd
[1]; week 8, range -25% to +10%
  mean decrease in left ventricular ejection fraction (LVEF): -7.2%
[2]
  activity against other kinases including p38 and JNK: inactive, or minimally active
